Experimental data: patent US7531344B2, “Induction and stabilization of enzymatic activity in microorganisms” (Georgia State University Research Foundation, Inc., priority 2006, dated 2009)
Blank lines part the entries; values can stand above or below the compound they belong to.

Assays:
[1] = tested on: nitrile hydratase; test: Nitrile hydratase induction by inducers, Example 1; assay type: cell-based, Rhodococcus sp., strain DAP 96253; conditions: for nitrile hydratase induction compared with acrylonitrile: Table 1 comparison
From the text: (§1) In certain embodiments, activity can be referred to in terms of “units” per mass of enzyme or cells (typically based on the dry weight of the cells, e.g., units/mg cdw). A “unit” generally refers to the ability to convert a specific content of a compound to a different compound under a defined set of conditions as a function of time. In specific embodiments, 1 “unit” of nitrile hydratase activity can relate to the ability to convert 1 μmol of acrylonitrile to its corresponding amide per minute, per milligram of cells (dry weight) at a of pH 7.0 and a temperature of 30° C. Similarly, 1 unit of amidase activity can relate to the ability to convert 1 μmol of acrylamide to its corresponding acid per minute, per milligram of cells (dry weight) at a pH of 7.0 and a temperature of 30° C. Further, 1 unit of asparaginase I activity can relate to the ability to convert 1 μmol of asparagine to its corresponding acid per minute, per milligram of cells (dry weight) at a pH of 7.0 and a temperature of 30° C.
(§2) The induction of nitrile hydratase activity and amidase activity in Rhodococcus sp., strain DAP 96253, was evaluated using multiple types of inducers (1000 ppm). Three different samples were cultured in YEMEA medium containing 10 ppm cobalt and 7.5 g/L urea and supplemented with acrylonitrile, asparagine, or glutamine. The specific nitrile hydratase activity and the specific amidase activity in each sample was evaluated, and the results are provided below in Table 1, with activities provided in units/mg cdw (cell dry weight). One unit of nitrile hydratase activity relates to the ability to convert 1 μmol of acrylonitrile to its corresponding amide per minute, per milligram of cells (dry weight) at a of pH 7.0 and a temperature of 30° C. One unit of amidase activity relates to the ability to convert 1 μmol of acrylamide to its corresponding acid per minute, per milligram of cells (dry weight) pH of 7.0 and a temperature of 30° C.

[2] = tested on: amidase; test: Amidase induction by inducers, Example 1; assay type: cell-based, Rhodococcus sp., strain DAP 96253; conditions: for amidase activity greater than the amidase activity resulting from the use of acrylonitrile: relative to acrylonitrile induction, Table 1
From the text: as §1, §2

[3] = tested on: asparaginase I; test: Asparaginase I production, Example 8; assay type: cell-based; conditions: asparagine and glutamine 3.8 mM
From the text: as §1
The induction of asparaginase I production in various nitrile hydratase producing microorganisms was evaluated. All strains were grown on YEMEA medium containing 7.5 g/L of urea and 10 ppm cobalt (provided as cobalt chloride) supplemented with asparagine (ASN), glutamine (GLN), or both asparagine and glutamine. The asparagine and glutamine were added 3.8 mM. As a comparative, enzyme production was also evaluated with supplementation was with acrylonitrile (AN), acrylamide (AMD) or acrylonitrile and acrylamide. Growth temperature was in the range of 26° C. to 30° C.

[4] = tested on: asparaginase I; test: Effect of media composition and inducer on asparaginase I, Example 10; assay type: cell-based, Rhodococcus sp. DAP 96253; conditions: for Asparaginase I levels / ability to induce asparaginase I activity: inducer 1000 ppm; for effect of medium additive on asparaginase I activity: maltose added to YEMEA, Cobalt 5-50 ppm with glucose or maltose
From the text: as §1
Testing was performed to evaluate the effect on asparaginase I activity based upon the inducer used. In particular, testing was performed using asparagine, glutamine, succinonitrile, and isovaleronitrile as inducers (all added at 1000 ppm each).

[5] = tested on: acrylonitrile specific nitrile hydratase; test: 20 liter fermentation with asparagine feed: nitrile hydratase; assay type: cell-based, Rhodococcus sp. DAP 96253; conditions: asparagine 0.15M at 1000 μl/min from t=10 h
Procedure: (§3) Rhodococcus sp. DAP 96253 were grown using biphasic medium as the source of inoculum for a 20 liter fermentation. The supplemental addition of medium/carbohydrate (either YEMEA, dextrose or maltose) was made to the modified R2A medium, containing cottonseed hydrolysate substituted for the Proteos Peptone 3 (PP3). Asparagine (0.15M solution) was added at a continuous rate of 1000 μl/min beginning at t=10 h. At the end of the fermentation run, 159 units per milligram cell dry weight of acrylonitrile specific nitrile hydratase, 22 units of amidase per milligram cell dry weight, and 16 g/l cell packed wet weight were produced.

[6] = tested on: amidase; test: 20 liter fermentation with asparagine feed: amidase; assay type: cell-based, Rhodococcus sp. DAP 96253; conditions: asparagine 0.15M at 1000 μl/min from t=10 h
Procedure: as §3

[7] = tested on: asparaginase I; test: 20 liter fermentation with asparagine feed: asparaginase I; assay type: cell-based, Rhodococcus sp. DAP 96253; conditions: asparagine 0.15M at 1000 μl/min from t=10 h
Procedure: as §3

[8] = tested on: nitrile hydratase; test: Nitrile hydratase production, Example 7; assay type: cell-based; conditions: Pseudomonas chloroaphis ATCC 43051; 30 °C; supplement 3.8 mM
Procedure: (§4) In certain embodiments, activity can be referred to in terms of “units” per mass of enzyme or cells (typically based on the dry weight of the cells, e.g., units/mg cdw). A “unit” generally refers to the ability to convert a specific content of a compound to a different compound under a defined set of conditions as a function of time. […] The induction of nitrile hydratase production and amidase production in various nitrile hydratase producing microorganisms was evaluated. […] The asparagine and glutamine were added 3.8 mM. As a comparative, enzyme production with no supplementation was also tested. Growth temperature was in the range of 26° C. to 30° C.

[9] = tested on: amidase; test: Amidase production, Example 7; assay type: cell-based; conditions: Pseudomonas chloroaphis ATCC 43051; 30 °C; supplement 3.8 mM
Procedure: as §4

[10] = Rhodococcus sp. DAP 96253, YEMEA, 10 ppm cobalt, 7.5 g/L urea, inducer 1000 ppm
[11] = YEMEA - Glucose, Without Cobalt
[12] = YEMEA - Maltose, Without Cobalt

SMILES: C=CC#N [Acrylonitrile, acrylonitrile]
Nitrile Hydratase Activity [1, 10]: 162.23 Units/mg cdw
Amidase Activity [2, 10]: 7.59 Units/mg cdw
Asparaginase I Level Based on Growth Medium Supplementation ([3]; Brevibacterium ketoglutaricum ATCC 21533, 30 °C): 14.6 Units/mg cdw
Asparaginase I Level Based on Growth Medium Supplementation ([3]; Pseudomonas chloroaphis ATCC 13985, 26 °C): 2 Units/mg cdw
Asparaginase I Level Based on Growth Medium Supplementation ([3]; Rhodococcus rhodochrous DAP 96622 (ATCC 55898), 26 °C): 8.2 Units/mg cdw
Asparaginase I Level Based on Growth Medium Supplementation ([3]; Rhodococcus sp. DAP 96253 (ATCC 55899), 30 °C): 7.8 Units/mg cdw

SMILES: N#CCCC#N [Succinonitrile, succinonitrile, reference compound]
Asparaginase I levels ([4]; YEMEA - Glucose, With Cobalt): 8.5 units/mg cell dry weight
Asparaginase I levels [4, 11]: 6.5 units/mg cell dry weight
Asparaginase I levels ([4]; YEMEA - Maltose, With Cobalt): 10.0 units/mg cell dry weight
Asparaginase I levels [4, 12]: 11.0 units/mg cell dry weight
ability to induce asparaginase I activity [4]: showed an ability to induce asparaginase I activity

SMILES: NC(=O)C[C@H](N)C(=O)O [Asparagine, asparagine]
nitrile hydratase induction compared with acrylonitrile [1]: exceeds the ability of acrylonitrile to induce such activity
amidase activity greater than the amidase activity resulting from the use of acrylonitrile [2]: approximately 74%
acrylonitrile specific nitrile hydratase produced at end of fermentation [5]: 159 units per milligram cell dry weight
amidase produced at end of fermentation [6]: 22 units per milligram cell dry weight
asparaginase I produced at end of fermentation [7]: 16 units per milligram cell dry weight
Asparaginase I levels ([4]; YEMEA - Glucose, With Cobalt): 6.5 units/mg cell dry weight
Asparaginase I levels [4, 11]: 5.3 units/mg cell dry weight
Asparaginase I levels [4, 12]: 8.7 units/mg cell dry weight

SMILES: [Co] [Cobalt]
effect of medium additive on asparaginase I activity [4]: resulted in improvements

Nitrile Hydratase Level Based on Growth Medium Supplementation [8]: No
Amidase Level Based on Growth Medium Supplementation [9]: No
Asparaginase I Level Based on Growth Medium Supplementation ([3]; Pseudomonas chloroaphis ATCC 43051, 30 °C): No
SMILES: NC(=O)CC[C@H](N)C(=O)O [Glutamine, glutamine]
nitrile hydratase induction compared with acrylonitrile [1]: exceeds the ability of acrylonitrile to induce such activity
amidase activity greater than the amidase activity resulting from the use of acrylonitrile [2]: approximately 37%
Asparaginase I levels ([4]; YEMEA - Glucose, With Cobalt): 1.9 units/mg cell dry weight
Asparaginase I levels [4, 11]: 1.5 units/mg cell dry weight
Asparaginase I levels ([4]; YEMEA - Maltose, With Cobalt): 8.1 units/mg cell dry weight
Asparaginase I levels [4, 12]: 9.3 units/mg cell dry weight
ability to induce asparaginase I activity [4]: showed an ability to induce asparaginase I activity

effect of medium additive on asparaginase I activity [4]: Higher asparaginase I activity
SMILES: OC[C@H]1O[C@H](O[C@H]2[C@H](O)[C@@H](O)C(O)O[C@@H]2CO)[C@H](O)[C@@H](O)[C@@H]1O (mixture of isomers) [maltose]

SMILES: CC(C)CC#N [Isovaleronitrile, isovaleronitrile, reference compound]
Asparaginase I levels ([4]; YEMEA - Glucose, With Cobalt): 2.9 units/mg cell dry weight
Asparaginase I levels [4, 11]: 3.5 units/mg cell dry weight
Asparaginase I levels ([4]; YEMEA - Maltose, With Cobalt): 7.0 units/mg cell dry weight
Asparaginase I levels [4, 12]: 6.8 units/mg cell dry weight
